Assay results from US9017645B2, “Homoglutamic acid derivatives” (Piramal Imaging SA, priority 2009, dated 2015).

System: H460 tumor cells
Experiment: Retention of activity in H460 tumor cells under efflux conditions
Format: cell-based, human
Settings: H460 cells loaded 30 min, then 30 min incubation in new buffer (efflux conditions)
Experimental: FIG. 5: Retention of (2S)-2-amino-5-[3-[^18F]fluoropropyl]hexanedioic acid in H460 tumor cells. H460 cells were loaded with 0.25 MBq (2S)-2-amino-5-[3-[^18F]fluoropropyl]hexanedioic acid for 30 min in PBS/BSA. After washing, the cells were incubated with new buffer (without radioactivity) for additional 10, 20, 30 min. The release of radioactivity into the supernatant as well as the retention inside the cells was determined.
In a second experiment, the retention of activity in tumor cells was examined. H460 cells were loaded with 0.25 MBq (2S)-2-amino-5-[3-[^18F]fluoropropyl]hexanedioic acid for 30 minutes in PBS/BSA-buffer. After this uptake, the buffer was removed and the cells were washed with PBS. The cells were then incubated with new PBS-buffer (without activity) for up to 30 min. The release of activity into the supernatant as well as the retention of activity inside the cells was examined. It was discovered, that more than 80% of activity were retained in the tumor cells after 30 min incubation under these efflux conditions (see FIG. 5).

N[C@@H](CCC(CCC[18F])C(=O)O)C(=O)O (stereo partly drawn) [(2S)-2-amino-5-[3-[^18F]fluoropropyl]hexanedioic acid]
activity retained in the tumor cells: more than 80%
